Values quoted from earlier work as cited in patent US6867034B2, “Methods of screening novel agents for use in cancer therapy and prevention” (The Curators of The University of Missouri, priority 2000, dated 2005).

Key:
Dictyostelium cells = settings: 300 μM cisplatin
repD = settings: after cisplatin treatment, versus basal levels
repB = settings: after cisplatin treatment, versus basal levels

## N.N.[Cl][Pt][Cl] [cisplatin]
Dictyostelium cells
  viability of the cells: reduced by three orders of magnitude
repD
  levels of repD mRNA: rapidly increase from basal levels
repB
  levels of repB mRNA: rapidly increase from basal levels
